Laboratory results as given in ChEMBL document CHEMBL1201861, “Genomics of Drug Sensitity in Cancer screening data, Wellcome Trust Sanger Institute”.

How the values were obtained:
Experiment in all cases: cells
[1] = system: KURAMOCHI; format: functional, cell-based; conditions: Homo sapiens;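 also: growth inhibition of KURAMOCHI cells, read out with a cell viability assay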
Description: SANGER: Inhibition of human KURAMOCHI cell growth in a cell viability assay.

[2] = system: NCI-H1581; format: functional, cell-based, Homo sapiens; conditions: Homo sapiens, NCI-H1581;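 also: cell growth inhibition read out by a viability assay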
Description: SANGER: Inhibition of human NCI-H1581 cell growth in a cell viability assay.

[3] = system: BE-13; format: functional, cell-based; conditions: Homo sapiens;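 also: growth inhibition of human BE-13 cells, measured with a cell viability assay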
Description: SANGER: Inhibition of human BE-13 cell growth in a cell viability assay.

[4] = system: A2780; format: functional, cell-based, Homo sapiens; conditions: Homo sapiens, A2780;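 also: growth inhibition of A2780 cells, read out with a cell viability assay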
Description: SANGER: Inhibition of human A2780 cell growth in a cell viability assay.

[5] = system: EGI-1; format: functional, cell-based, Homo sapiens; conditions: Homo sapiens, EGI-1;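 also: cell viability readout used to gauge growth inhibition of EGI-1 cells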
Description: SANGER: Inhibition of human EGI-1 cell growth in a cell viability assay.

[6] = system: LAN-6; format: functional, cell-based, Homo sapiens; conditions: Homo sapiens, LAN-6;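 also: growth inhibition of LAN-6 cells, determined with a cell viability assay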
Description: SANGER: Inhibition of human LAN-6 cell growth in a cell viability assay.

[7] = system: AGS; format: functional, cell-based, Homo sapiens; conditions: Homo sapiens, AGS;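 also: growth inhibition of AGS cells, determined with a cell viability assay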
Description: SANGER: Inhibition of human AGS cell growth in a cell viability assay.

[8] = system: HT-1080; format: functional, cell-based, Homo sapiens; conditions: Homo sapiens, HT-1080
Description: SANGER: Inhibition of human HT-1080 cell growth in a cell viability assay.

[9] = system: EW-16; format: functional, cell-based, Homo sapiens; conditions: Homo sapiens, EW-16;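 also: growth inhibition of human EW-16 cells, read out as cell viability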
Description: SANGER: Inhibition of human EW-16 cell growth in a cell viability assay.

[10] = system: NCI-H358; format: functional, cell-based, Homo sapiens; conditions: Homo sapiens, NCI-H358;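 also: growth inhibition of NCI-H358 human cells, read out with a cell viability assay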
Description: SANGER: Inhibition of human NCI-H358 cell growth in a cell viability assay.

[11] = system: UMC-11; format: functional, cell-based, Homo sapiens; conditions: Homo sapiens, UMC-11;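 also: growth inhibition of UMC-11 cells, read out with a cell viability assay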
Description: SANGER: Inhibition of human UMC-11 cell growth in a cell viability assay.

[12] = system: 647-V; format: functional, cell-based, Homo sapiens; conditions: Homo sapiens, 647-V;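 also: growth inhibition of 647-V cells, read out with a cell viability assay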
Description: SANGER: Inhibition of human 647-V cell growth in a cell viability assay.

[13] = system: NCI-H1693; format: functional, cell-based, Homo sapiens; conditions: Homo sapiens, NCI-H1693;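 also: growth inhibition of the human cell line, read out with a cell viability assay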
Description: SANGER: Inhibition of human NCI-H1693 cell growth in a cell viability assay.

[14] = system: TGBC1TKB; format: functional, cell-based, Homo sapiens; conditions: Homo sapiens, TGBC1TKB;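 also: growth inhibition of TGBC1TKB cells, read out by a cell viability assay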
Description: SANGER: Inhibition of human TGBC1TKB cell growth in a cell viability assay.

[15] = system: CHP-212; format: functional, cell-based, Homo sapiens; conditions: Homo sapiens, CHP-212
Description: SANGER: Inhibition of human CHP-212 cell growth in a cell viability assay.

[16] = system: ONS-76; format: functional, cell-based, Homo sapiens; conditions: Homo sapiens, ONS-76;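 also: growth inhibition of human ONS-76 cells, read out with a cell viability assay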
Description: SANGER: Inhibition of human ONS-76 cell growth in a cell viability assay.

[17] = system: GI-ME-N; format: functional, cell-based, Homo sapiens; conditions: Homo sapiens, GI-ME-N;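 also: growth inhibition of human GI-ME-N cells, read out with a cell viability assay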
Description: SANGER: Inhibition of human GI-ME-N cell growth in a cell viability assay.

[18] = system: SNU-449; format: functional, cell-based, Homo sapiens; conditions: Homo sapiens, SNU-449
Description: SANGER: Inhibition of human SNU-449 cell growth in a cell viability assay.

[19] = system: KP-N-YN; format: functional, cell-based; conditions: Homo sapiens;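 also: growth inhibition of KP-N-YN cells, read out with a cell viability assay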
Description: SANGER: Inhibition of human KP-N-YN cell growth in a cell viability assay.

[20] = system: LB2518-MEL; format: functional, cell-based, Homo sapiens; conditions: Homo sapiens, LB2518-MEL;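 also: growth inhibition of human LB2518-MEL cells, measured with a cell viability assay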
Description: SANGER: Inhibition of human LB2518-MEL cell growth in a cell viability assay.

[21] = system: SK-MES-1; format: functional, cell-based, Homo sapiens; conditions: Homo sapiens, SK-MES-1;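 also: growth inhibition of human SK-MES-1 cells, read out with a cell viability assay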
Description: SANGER: Inhibition of human SK-MES-1 cell growth in a cell viability assay.

[22] = system: GAMG; format: functional, cell-based, Homo sapiens; conditions: Homo sapiens, GAMG;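 also: cell growth inhibition measured by a viability assay in the GAMG human cell line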
Description: SANGER: Inhibition of human GAMG cell growth in a cell viability assay.

[23] = system: IST-MES1; format: functional, cell-based, Homo sapiens; conditions: Homo sapiens, IST-MES1;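 also: growth inhibition of IST-MES1 cells, measured with a cell viability assay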
Description: SANGER: Inhibition of human IST-MES1 cell growth in a cell viability assay.

[24] = system: 8-MG-BA; format: functional, cell-based, Homo sapiens; conditions: Homo sapiens, 8-MG-BA;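 also: growth inhibition of 8-MG-BA cells, read out with a cell viability assay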
Description: SANGER: Inhibition of human 8-MG-BA cell growth in a cell viability assay.

[25] = system: MKN-7; format: functional, cell-based, Homo sapiens; conditions: Homo sapiens, MKN-7;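 also: growth inhibition of MKN-7 cells, read out with a cell viability assay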
Description: SANGER: Inhibition of human MKN7 cell growth in a cell viability assay.

[26] = system: LB771-HNC; format: functional, cell-based, Homo sapiens; conditions: Homo sapiens, LB771-HNC;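 also: growth inhibition of LB771-HNC human cells, read out with a cell viability assay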
Description: SANGER: Inhibition of human LB771-HNC cell growth in a cell viability assay.

[27] = system: Ca9-22; format: functional, cell-based, Homo sapiens; conditions: Homo sapiens, Ca9-22;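 also: growth inhibition of Ca9-22 cells, read out with a cell viability assay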
Description: SANGER: Inhibition of human Ca9-22 cell growth in a cell viability assay.

[28] = system: SK-OV-3; format: functional, cell-based, Homo sapiens; conditions: Homo sapiens, SK-OV-3;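 also: growth inhibition of SK-OV-3 human cells, read out with a cell viability assay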
Description: SANGER: Inhibition of human SK-OV-3 cell growth in a cell viability assay.

[29] = system: NCI-H1793; format: functional, cell-based, Homo sapiens; conditions: Homo sapiens, NCI-H1793;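 also: cell growth inhibition, read out by a cell viability assay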
Description: SANGER: Inhibition of human NCI-H1793 cell growth in a cell viability assay.

[30] = system: NCI-H1155; format: functional, cell-based; conditions: Homo sapiens;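 also: cell growth inhibition measured by a viability assay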
Description: SANGER: Inhibition of human NCI-H1155 cell growth in a cell viability assay.

[31] = system: SNU-C2B; format: functional, cell-based, Homo sapiens; conditions: Homo sapiens, SNU-C2B;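 also: cell viability readout used to measure compound-driven suppression of SNU-C2B cell proliferation, IC50 marking half-maximal growth inhibition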
Description: SANGER: Inhibition of human SNU-C2B cell growth in a cell viability assay.

[32] = system: NCI-H209; format: functional, cell-based; conditions: Homo sapiens;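 also: growth inhibition of human NCI-H209 cells, measured by a cell viability assay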
Description: SANGER: Inhibition of human NCI-H209 cell growth in a cell viability assay.

[33] = system: HAL-01; format: functional, cell-based; conditions: Homo sapiens;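 also: growth inhibition of human HAL-01 cells, read out with a cell viability assay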
Description: SANGER: Inhibition of human HAL-01 cell growth in a cell viability assay.

[34] = system: SCC-25; format: functional, cell-based, Homo sapiens; conditions: Homo sapiens, SCC-25;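 also: growth inhibition of SCC-25 cells, measured with a cell viability assay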
Description: SANGER: Inhibition of human SCC-25 cell growth in a cell viability assay.

[35] = system: 8505C; format: functional, cell-based, Homo sapiens; conditions: Homo sapiens, 8505C
Description: SANGER: Inhibition of human 8505C cell growth in a cell viability assay.

[36] = system: RT-112; format: functional, cell-based, Homo sapiens; conditions: Homo sapiens, RT-112
Description: SANGER: Inhibition of human RT-112 cell growth in a cell viability assay.

[37] = system: BCPAP; format: functional, cell-based, Homo sapiens; conditions: Homo sapiens, BCPAP;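 also: growth inhibition of BCPAP cells, read out in a cell viability assay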
Description: SANGER: Inhibition of human BCPAP cell growth in a cell viability assay.

[38] = system: A253 cell line; format: functional, cell-based, Homo sapiens; conditions: Homo sapiens, A253;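 also: growth inhibition of A253 cells, read out with a cell viability assay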
Description: SANGER: Inhibition of human A253 cell growth in a cell viability assay.

[39] = system: SJSA-1; format: functional, cell-based, Homo sapiens; conditions: Homo sapiens, SJSA-1;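 also: growth inhibition of human SJSA-1 cells, read out through a cell viability measurement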
Description: SANGER: Inhibition of human SJSA-1 cell growth in a cell viability assay.

[40] = system: NCI-H720; format: functional, cell-based; conditions: Homo sapiens;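 also: growth inhibition of human NCI-H720 cells determined by a cell viability assay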
Description: SANGER: Inhibition of human NCI-H720 cell growth in a cell viability assay.

[41] = system: GP5d; format: functional, cell-based, Homo sapiens; conditions: Homo sapiens, GP5d;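 also: growth inhibition of human GP5d cells, read out with a cell viability assay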
Description: SANGER: Inhibition of human GP5d cell growth in a cell viability assay.

[42] = system: Panc1005; format: functional, cell-based, Homo sapiens; conditions: Homo sapiens, Panc1005;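 also: growth inhibition of human PANC-10-05 cells, measured by a cell viability assay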
Description: SANGER: Inhibition of human PANC-10-05 cell growth in a cell viability assay.

[43] = system: LK-2; format: functional, cell-based, Homo sapiens; conditions: Homo sapiens, LK-2;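 also: growth inhibition of LK-2 cells, read out with a viability assay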
Description: SANGER: Inhibition of human LK-2 cell growth in a cell viability assay.

[44] = system: SW1573; format: functional, cell-based, Homo sapiens; conditions: Homo sapiens, SW1573;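 also: growth inhibition of SW1573 cells, read out with a cell viability assay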
Description: SANGER: Inhibition of human SW1573 cell growth in a cell viability assay.

[45] = system: NB14; format: functional, cell-based; conditions: Homo sapiens;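 also: growth inhibition of NB14 cells measured with a cell viability assay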
Description: SANGER: Inhibition of human NB14 cell growth in a cell viability assay.

[46] = system: D283 Med; format: functional, cell-based, Homo sapiens; conditions: Homo sapiens, D283 Med
Description: SANGER: Inhibition of human D-283MED cell growth in a cell viability assay.

[47] = system: NCI-H28; format: functional, cell-based, Homo sapiens; conditions: Homo sapiens, NCI-H28;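 also: growth inhibition of human NCI-H28 cells, read out as cell viability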
Description: SANGER: Inhibition of human NCI-H28 cell growth in a cell viability assay.

[48] = system: KG-1; format: functional, cell-based; conditions: Homo sapiens;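 also: growth inhibition of KG-1 cells, read out by a cell viability assay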
Description: SANGER: Inhibition of human KG-1 cell growth in a cell viability assay.

[49] = system: HOP-62; format: functional, cell-based, Homo sapiens; conditions: Homo sapiens, HOP-62;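 also: cell growth inhibition determined with a viability assay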
Description: SANGER: Inhibition of human HOP-62 cell growth in a cell viability assay.

[50] = system: A4-Fuk; format: functional, cell-based; conditions: Homo sapiens;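 also: growth inhibition of A4-Fuk cells, read out by a cell viability assay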
Description: SANGER: Inhibition of human A4-Fuk cell growth in a cell viability assay.

[51] = system: NKM-1; format: functional, cell-based; conditions: Homo sapiens;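 also: growth inhibition of NKM-1 cells, read out with a cell viability assay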
Description: SANGER: Inhibition of human NKM-1 cell growth in a cell viability assay.

Measured: IC50

CC(=O)O[C@@H]1[C@@H](OC(C)=O)[C@@H](O)[C@H](Oc2c(-c3ccc(O)cc3)oc3cc(O)cc(O)c3c2=O)O[C@H]1C
> 10 µM: all assays above
